According to the supplement of paper PMC10307832:

How the values were obtained:
Assay in all cases: relative viability (nuclei count vs DMSO), 5 days (fraction); higher = more cells survive
[1] = compound: Cc1ccc(F)c(NC(=O)Nc2ccc(-c3cccc4[nH]nc(N)c34)cc2)c1 [Linifanib]
Summary of the method: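 Vehicle-anchored 1536-well plates of lung cancer cell lines, held overnight at 37 °C, were pinned with five library-drug doses (not always all listed) spaced by √10. No medium change followed over the next 5 days, after which the cells were fixed, permeabilised and Hoechst-stained together and imaged at 4×. Nuclei were counted with MetaXpress, and viability is treated-well nuclei over vehicle-well nuclei, taken as a median across plates. Plates passed with control CV below 25% and at least one doubling.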

[2] = compound: Cc1ccc(F)c(NC(=O)Nc2ccc(-c3cccc4[nH]nc(N)c34)cc2)c1 [Linifanib] + N=C(N)NC(=N)NCCc1ccccc1 [Phenformin] (partner 250 µM)
Summary of the method: (§1)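 A single step with final 0.05% Triton X-100, 1% formaldehyde and 1 ug/ml Hoechst fixed the cells and stained nuclei 5 days after treatment. Lung cancer cell lines in 1536-well plates had been treated by pin tool the day after seeding with one drug alone or a fixed anchor-drug dose plus five library-drug doses (not always all listed) in √10 steps, and nuclei were counted on 4× images. Relative viability is the ratio of nuclei in treated wells to nuclei in vehicle wells, taken as the median of duplicate plates.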

[3] = compound: Cc1ccc(F)c(NC(=O)Nc2ccc(-c3cccc4[nH]nc(N)c34)cc2)c1 [Linifanib] + CCNC(=O)c1noc(-c2cc(C(C)C)c(O)cc2O)c1-c1ccc(CN2CCOCC2)cc1 [Luminespib] (partner 0.01 µM)
Summary of the method: as §1

[4] = compound: Cc1ccc(F)c(NC(=O)Nc2ccc(-c3cccc4[nH]nc(N)c34)cc2)c1 [Linifanib] + Cc1cc(Nc2cc(N3CCN(C)CC3)nc(Sc3ccc(NC(=O)C4CC4)cc3)n2)n[nH]1 [Tozasertib] (partner 0.1 µM)
Summary of the method: as §1

[5] = compound: Cc1ccc(F)c(NC(=O)Nc2ccc(-c3cccc4[nH]nc(N)c34)cc2)c1 [Linifanib] + Cc1nc(Nc2ncc(C(=O)Nc3c(C)cccc3Cl)s2)cc(N2CCN(CCO)CC2)n1 [Dasatinib] (partner 0.075 µM)
Summary of the method: as §1

[6] = compound: Cc1ccc(F)c(NC(=O)Nc2ccc(-c3cccc4[nH]nc(N)c34)cc2)c1 [Linifanib] + O=C(c1cc(Cc2n[nH]c(=O)c3ccccc23)ccc1F)N1CCN(C(=O)C2CC2)CC1 [Olaparib] (partner 8 µM)
Summary of the method: as §1

[7] = compound: Cc1ccc(F)c(NC(=O)Nc2ccc(-c3cccc4[nH]nc(N)c34)cc2)c1 [Linifanib] + Nc1ncn([C@H]2C[C@H](O)[C@@H](CO)O2)c(=O)n1 [Decitabine] (partner 2 µM)
Summary of the method: as §1

[8] = compound: Cc1ccc(F)c(NC(=O)Nc2ccc(-c3cccc4[nH]nc(N)c34)cc2)c1 [Linifanib] + NC(=O)Nc1cc(-c2cccc(F)c2)sc1C(=O)N[C@H]1CCCNC1 [AZD7762] (partner 0.2 µM)
Summary of the method: as §1

[9] = compound: Cc1ccc(F)c(NC(=O)Nc2ccc(-c3cccc4[nH]nc(N)c34)cc2)c1 [Linifanib] + Nc1nc2[nH]cc(CCc3ccc(C(=O)N[C@@H](CCC(=O)O)C(=O)O)cc3)c2c(=O)[nH]1 [Pemetrexed] (partner 0.2 µM)
Summary of the method: as §1

[10] = compound: Cc1ccc(F)c(NC(=O)Nc2ccc(-c3cccc4[nH]nc(N)c34)cc2)c1 [Linifanib] + CC(=O)c1c(C)c2cnc(Nc3ccc(N4CCNCC4)cn3)nc2n(C2CCCC2)c1=O [Palbociclib] (partner 0.5 µM)
Summary of the method: as §1

[11] = compound: Cc1ccc(F)c(NC(=O)Nc2ccc(-c3cccc4[nH]nc(N)c34)cc2)c1 [Linifanib] + CC(=O)Nc1cccc(-n2c(=O)n(C3CC3)c(=O)c3c(Nc4ccc(I)cc4F)n(C)c(=O)c(C)c32)c1 [Trametinib] (partner 0.02 µM)
Summary of the method: as §1

[12] = compound: Cc1ccc(F)c(NC(=O)Nc2ccc(-c3cccc4[nH]nc(N)c34)cc2)c1 [Linifanib] + O=C(CCCCCCC(=O)Nc1ccccc1)NO [Vorinostat] (partner 1 µM)
Summary of the method: as §1

[13] = compound: Cc1ccc(F)c(NC(=O)Nc2ccc(-c3cccc4[nH]nc(N)c34)cc2)c1 [Linifanib] + COc1cccc2cc(-c3nc([C@H]4CC[C@H](C(=O)O)CC4)n4ncnc(N)c34)[nH]c12 [OSI-027] (partner 0.5 µM)
Summary of the method: as §1

[14] = compound: Cc1ccc(F)c(NC(=O)Nc2ccc(-c3cccc4[nH]nc(N)c34)cc2)c1 [Linifanib] + COc1cc2c(Oc3ccc(NC(=O)C4(C(=O)Nc5ccc(F)cc5)CC4)cc3F)ccnc2cc1OCCCN1CCOCC1 [Foretinib] (partner 0.25 µM)
Summary of the method: as §1

[15] = compound: Cc1ccc(F)c(NC(=O)Nc2ccc(-c3cccc4[nH]nc(N)c34)cc2)c1 [Linifanib] + CS(=O)(=O)CCNCc1ccc(-c2ccc3ncnc(Nc4ccc(OCc5cccc(F)c5)c(Cl)c4)c3c2)o1 [Lapatinib] (partner 2 µM)
Summary of the method: as §1

[16] = compound: Cc1ccc(F)c(NC(=O)Nc2ccc(-c3cccc4[nH]nc(N)c34)cc2)c1 [Linifanib] + C[C@@H](Oc1cc(-c2cnn(C3CCNCC3)c2)cnc1N)c1c(Cl)ccc(F)c1Cl [Crizotinib] (partner 1 µM)
Summary of the method: as §1

[17] = compound: Cc1ccc(F)c(NC(=O)Nc2ccc(-c3cccc4[nH]nc(N)c34)cc2)c1 [Linifanib] + CC1(C)CCC(c2ccc(Cl)cc2)=C(CN2CCN(c3ccc(C(=O)NS(=O)(=O)c4ccc(N[C@H](CCN5CCOCC5)CSc5ccccc5)c(S(=O)(=O)C(F)(F)F)c4)cc3)CC2)C1 [Navitoclax] (partner 0.5 µM)
Summary of the method: as §1

[18] = compound: Cc1ccc(F)c(NC(=O)Nc2ccc(-c3cccc4[nH]nc(N)c34)cc2)c1 [Linifanib] + C[C@]1(O)C[C@@H](c2nc(-c3ccc4ccc(-c5ccccc5)nc4c3)c3c(N)nccn32)C1 [Linsitinib] (partner 1 µM)
Summary of the method: as §1

[19] = compound: Cc1ccc(F)c(NC(=O)Nc2ccc(-c3cccc4[nH]nc(N)c34)cc2)c1 [Linifanib] + Cc1nc(NC(=O)N2CCC[C@H]2C(N)=O)sc1-c1ccnc(C(C)(C)C(F)(F)F)c1 [Alpelisib] (partner 2 µM)
Summary of the method: as §1

[20] = compound: Cc1ccc(F)c(NC(=O)Nc2ccc(-c3cccc4[nH]nc(N)c34)cc2)c1 [Linifanib] + CC(C)C[C@H](NC(=O)[C@H](Cc1ccccc1)NC(=O)c1cnccn1)B(O)O [Bortezomib] (partner 0.002 µM)
Summary of the method: as §1

[21] = compound: Cc1ccc(F)c(NC(=O)Nc2ccc(-c3cccc4[nH]nc(N)c34)cc2)c1 [Linifanib] + CS(=O)(=O)N1CCN(Cc2cc3nc(-c4cccc5[nH]ncc45)nc(N4CCOCC4)c3s2)CC1 [Pictilisib] (partner 1 µM)
Summary of the method: as §1

For NCI-H522, the relative viability ([1]; 0.03162 µM) was 0.943, the relative viability ([1]; 0.1 µM) was 1.02 and the relative viability ([1]; 0.3162 µM) was 0.995. The relative viability ([2]; first compound 0.03162 µM) was 0.716, the relative viability ([2]; first compound 0.1 µM) was 0.647 and the relative viability ([2]; first compound 0.3162 µM) was 0.551. The relative viability ([3]; first compound 0.03162 µM) was 1.18, the relative viability ([3]; first compound 0.1 µM) was 0.98 and the relative viability ([3]; first compound 0.3162 µM) was 1.13. For the same cell line, the relative viability ([4]; first compound 0.03162 µM) was 0.556, the relative viability ([4]; first compound 0.1 µM) was 0.542 and the relative viability ([4]; first compound 0.3162 µM) was 0.474. The relative viability ([5]; first compound 0.03162 µM) was 0.862, the relative viability ([5]; first compound 0.1 µM) was 0.868 and the relative viability ([5]; first compound 0.3162 µM) was 0.871. It also gave a relative viability ([6]; first compound 0.03162 µM) of 0.555, a relative viability ([6]; first compound 0.1 µM) of 0.693 and a relative viability ([6]; first compound 0.3162 µM) of 0.667. For the same cell line, the relative viability ([7]; first compound 0.03162 µM) was 0.613, the relative viability ([7]; first compound 0.1 µM) was 0.703 and the relative viability ([7]; first compound 0.3162 µM) was 0.759. The relative viability ([8]; first compound 0.03162 µM) was 0.879, the relative viability ([8]; first compound 0.1 µM) was 0.804 and the relative viability ([8]; first compound 0.3162 µM) was 0.809. The relative viability ([9]; first compound 0.03162 µM) was 0.945, the relative viability ([9]; first compound 0.1 µM) was 0.798 and the relative viability ([9]; first compound 0.3162 µM) was 1.06. It also gave a relative viability ([10]; first compound 0.03162 µM) of 1.05, a relative viability ([10]; first compound 0.1 µM) of 0.954 and a relative viability ([10]; first compound 0.3162 µM) of 0.995. It also gave a relative viability ([11]; first compound 0.03162 µM) of 0.643, a relative viability ([11]; first compound 0.1 µM) of 0.713 and a relative viability ([11]; first compound 0.3162 µM) of 0.736. It also gave a relative viability ([12]; first compound 0.03162 µM) of 0.851, a relative viability ([12]; first compound 0.1 µM) of 0.88 and a relative viability ([12]; first compound 0.3162 µM) of 0.929. It also gave a relative viability ([13]; first compound 0.03162 µM) of 0.815, a relative viability ([13]; first compound 0.1 µM) of 0.721 and a relative viability ([13]; first compound 0.3162 µM) of 0.719.

NCI-H1623 was tested, and the relative viability ([1]; 0.03162 µM) was 0.918, the relative viability ([1]; 0.1 µM) was 0.891 and the relative viability ([1]; 0.3162 µM) was 1.04. For the same cell line, the relative viability ([2]; first compound 0.03162 µM) was 0.524, the relative viability ([2]; first compound 0.1 µM) was 0.601 and the relative viability ([2]; first compound 0.3162 µM) was 0.601. The relative viability ([3]; first compound 0.03162 µM) was 0.49, the relative viability ([3]; first compound 0.1 µM) was 0.493 and the relative viability ([3]; first compound 0.3162 µM) was 0.471. It also gave a relative viability ([4]; first compound 0.03162 µM) of 0.427, a relative viability ([4]; first compound 0.1 µM) of 0.434 and a relative viability ([4]; first compound 0.3162 µM) of 0.417. The relative viability ([5]; first compound 0.03162 µM) was 0.463, the relative viability ([5]; first compound 0.1 µM) was 0.608 and the relative viability ([5]; first compound 0.3162 µM) was 0.46. For the same cell line, the relative viability ([14]; first compound 0.03162 µM) was 0.848, the relative viability ([14]; first compound 0.1 µM) was 0.929 and the relative viability ([14]; first compound 0.3162 µM) was 0.877. The relative viability ([13]; first compound 0.03162 µM) was 0.437, the relative viability ([13]; first compound 0.1 µM) was 0.43 and the relative viability ([13]; first compound 0.3162 µM) was 0.421.

With IA-LM the relative viability ([1]; 0.03162 µM) was 0.983, the relative viability ([1]; 0.1 µM) was 0.84 and the relative viability ([1]; 0.3162 µM) was 0.914. The relative viability ([6]; first compound 0.03162 µM) was 0.901, the relative viability ([6]; first compound 0.1 µM) was 0.81 and the relative viability ([6]; first compound 0.3162 µM) was 0.8. For the same cell line, the relative viability ([15]; first compound 0.03162 µM) was 0.718, the relative viability ([15]; first compound 0.3162 µM) was 0.713 and the relative viability ([16]; first compound 0.03162 µM) was 0.806. For the same cell line, the relative viability ([16]; first compound 0.3162 µM) was 0.768, the relative viability ([17]; first compound 0.03162 µM) was 0.855 and the relative viability ([17]; first compound 0.1 µM) was 0.947. It also gave a relative viability ([17]; first compound 0.3162 µM) of 0.656, a relative viability ([14]; first compound 0.03162 µM) of 1.2 and a relative viability ([14]; first compound 0.1 µM) of 1.18. For the same cell line, the relative viability ([14]; first compound 0.3162 µM) was 1.15, the relative viability ([18]; first compound 0.03162 µM) was 0.611 and the relative viability ([18]; first compound 0.1 µM) was 0.46. It also gave a relative viability ([18]; first compound 0.3162 µM) of 0.55, a relative viability ([19]; first compound 0.03162 µM) of 0.588 and a relative viability ([19]; first compound 0.1 µM) of 0.872. The relative viability ([19]; first compound 0.3162 µM) was 0.643, the relative viability ([12]; first compound 0.03162 µM) was 0.841 and the relative viability ([12]; first compound 0.1 µM) was 0.906. It also gave a relative viability ([12]; first compound 0.3162 µM) of 1.33, a relative viability ([20]; first compound 0.03162 µM) of 0.752 and a relative viability ([20]; first compound 0.1 µM) of 0.974. It also gave a relative viability ([20]; first compound 0.3162 µM) of 0.846, a relative viability ([21]; first compound 0.03162 µM) of 0.313 and a relative viability ([21]; first compound 0.1 µM) of 0.319. It also gave a relative viability ([21]; first compound 0.3162 µM) of 0.338.
